US20030215462A1, “Use of UGT inhibitors to increase bioavailability” (priority 2001, published 2003)
“And” between values parts separate entries of the source, which are not always exact repeats. Equal entries are not always repeated.

Key:
[1] = test system: UGT enzymes of human liver microsomes; assay: Inhibition of raloxifene glucuronidation (G1, G2) in human liver microsomes; type: biochemical; conditions: raloxifene 50 μM; for % of control metabolism (SD, n = 3), raloxifene glucuronide G1 / % of control metabolism (SD, n = 3), raloxifene glucuronide G2: human liver microsomes 250 μg/ml, 15 min
Excerpt: Compounds were eluted using a binary solvent gradient system. […] Solvent B was methanol. […] Detection was at 280 nm.

UGT1A1 = biological target: T1, UGT1A1 (Homo sapiens, UniProt P22309); assay: Inhibition of raloxifene glucuronidation by recombinant UGT1A1 Supersomes; conditions: for Inhibition of raloxifene glucuronidation, G1, UGT1A1 / Inhibition of raloxifene glucuronidation, G2, UGT1A1: raloxifene 50 μM, 250 μg/ml Supersomes, 1 mM UDPGA, 15 min; for % of control metabolism, raloxifene G1 / % of control metabolism, raloxifene G2: UGT1A1
T1 sequence (P22309 26-533): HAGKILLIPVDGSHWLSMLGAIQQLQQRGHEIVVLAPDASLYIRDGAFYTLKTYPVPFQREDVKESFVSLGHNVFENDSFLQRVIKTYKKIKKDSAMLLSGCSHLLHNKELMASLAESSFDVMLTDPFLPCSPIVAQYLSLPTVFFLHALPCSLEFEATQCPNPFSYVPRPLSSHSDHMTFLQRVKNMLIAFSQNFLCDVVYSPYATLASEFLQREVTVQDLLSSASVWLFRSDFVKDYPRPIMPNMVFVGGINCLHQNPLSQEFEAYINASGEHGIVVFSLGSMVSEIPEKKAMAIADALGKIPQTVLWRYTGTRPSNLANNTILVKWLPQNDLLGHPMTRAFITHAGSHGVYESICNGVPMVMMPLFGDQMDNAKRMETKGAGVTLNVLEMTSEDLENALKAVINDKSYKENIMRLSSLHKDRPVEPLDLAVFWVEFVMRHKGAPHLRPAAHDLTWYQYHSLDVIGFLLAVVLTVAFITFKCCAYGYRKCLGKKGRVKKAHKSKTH
Experimental: Compounds were eluted using a binary solvent gradient system. Solvent A was water brought to pH 8 with NH4OH. Solvent B was methanol. Solvent flow rate was 1 ml/min and the column temperature was maintained at 50° C. Detection was at 280 nm. […] The system was then returned to the initial conditions and equilibrated for 3 min.

[2] = test system: T2, UGT enzymes of human liver microsomes; assay: Inhibition of 2ME2 glucuronidation (MG1, MG2) in human liver microsomes; type: biochemical; conditions: liver 062101, 2ME2 50 μM
T2 construct: other: liver 062101
Excerpt: (§1) Compounds were eluted using a binary solvent gradient system where solvent A was dilute phosphoric acid (pH 3) and solvent B was 80:20 acetonitrile-methanol. […] Detection was at 280 nm.

[3] = test system: T3, UGT enzymes of human liver microsomes; assay: Inhibition of 7-HFC glucuronidation in human liver microsomes; type: biochemical; conditions: inhibitor 500 μM
T3 construct: percentage of control metabolism, 7-HFC glucuronidation; percentage of control metabolism, 7-HFC glucuronidation

[4] = test system: UGT enzymes of pooled human jejunum microsomes; assay: Inhibition of 2ME2 glucuronidation (MG1) in pooled human jejunum microsomes; type: biochemical; conditions: jejunum HJ61, 2ME2 50 μM
Excerpt: as §1

[5] = test system: UGT enzymes of pooled human jejunum microsomes; assay: Inhibition of zidovudine glucuronidation in pooled human jejunum microsomes; type: biochemical
Experimental: Increasing the microsomal protein concentration to 1 mg/ml and extending the incubation time to 60 min provided meaningful metabolite levels for inhibition studies.

[6] = biological target: T4, UGT enzymes of human liver microsomes (Homo sapiens, UniProt P16662); assay: Inhibition of zidovudine glucuronidation in human liver microsomes; type: biochemical; conditions: liver lot 062101
T4 construct: residual metabolism (percentage of control), zidovudine glucuronidation; other: liver lot 062101; residual metabolism (percentage of control), zidovudine glucuronidation; residual metabolism (percentage of control)
T4 sequence (P16662 1-529): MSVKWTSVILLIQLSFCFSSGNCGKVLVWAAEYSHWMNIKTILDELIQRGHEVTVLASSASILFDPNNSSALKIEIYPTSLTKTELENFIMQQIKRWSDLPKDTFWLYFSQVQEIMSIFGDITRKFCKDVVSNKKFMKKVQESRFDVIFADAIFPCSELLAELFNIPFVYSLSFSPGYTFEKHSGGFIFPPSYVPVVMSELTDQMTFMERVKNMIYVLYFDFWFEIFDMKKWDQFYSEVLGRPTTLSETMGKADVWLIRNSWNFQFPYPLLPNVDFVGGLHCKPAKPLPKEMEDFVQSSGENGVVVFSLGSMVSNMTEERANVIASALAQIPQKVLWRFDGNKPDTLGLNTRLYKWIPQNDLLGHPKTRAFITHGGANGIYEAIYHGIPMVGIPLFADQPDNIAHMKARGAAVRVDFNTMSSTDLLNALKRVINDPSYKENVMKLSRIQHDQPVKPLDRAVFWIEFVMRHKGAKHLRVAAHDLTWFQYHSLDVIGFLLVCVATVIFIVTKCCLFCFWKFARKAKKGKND
Experimental: Compounds were eluted using a binary solvent gradient system where solvent A was dilute phosphoric acid (pH 3) and solvent B was acetonitrile.
Standardized incubations utilized 500 μM zidovudine substrate, 1 mg/ml microsomal protein, 5 mM UDPGA and a 30 min incubation time. […] Int.

[7] = inhibitor column headed only "μM" (between 25 μM and 5 μM)

Q: With `C#C[C@]1(O)CC[C@H]2[C@@H]3CCc4cc(O)ccc4[C@H]3CC[C@@]21C` [17-α-Ethinylestradiol, 17-α-ethinylestradiol, reference compound] as the molecule, how does the “% of control metabolism (SD, n = 3), raloxifene glucuronide G1” value ([1]; inhibitor 25 μM) read?
A: Its value is 66 (3) %.

Q: What about the “% of control metabolism (SD, n = 3), raloxifene glucuronide G1” value ([1]; inhibitor 50 μM) of the same molecule?
A: The value was 42 (2) %.

Q: And the “% of control metabolism (SD, n = 3), raloxifene glucuronide G1” value ([1]; inhibitor 100 μM)?
A: The value was 31 (2) %.

Q: What about the “% of control metabolism (SD, n = 3), raloxifene glucuronide G1” value ([1]; inhibitor 500 μM) of the same molecule?
A: The value was 2 (0) %.

Q: What about the “% of control metabolism (SD, n = 3), raloxifene glucuronide G2” value ([1]; inhibitor 25 μM) of the same molecule?
A: The value was 80 (3) %.

Q: And the “% of control metabolism (SD, n = 3), raloxifene glucuronide G2” value ([1]; inhibitor 50 μM)?
A: Its value is 60 (2) %.

Q: What about the “% of control metabolism (SD, n = 3), raloxifene glucuronide G2” value ([1]; inhibitor 100 μM) of the same molecule?
A: Its value is 56 (3) %.

Q: What about the “% of control metabolism (SD, n = 3), raloxifene glucuronide G2” value ([1]; inhibitor 500 μM) of the same molecule?
A: Its value is 6 (0) %.

Q: What about the “% of control metabolism, raloxifene G1” value ([1]; inhibitor 25 μM) of the same molecule?
A: The value was 66 (3) %.

Q: And the “% of control metabolism, raloxifene G2” value ([1]; inhibitor 25 μM)?
A: Its value is 80 (3) %.

Q: What about the “% of control metabolism, raloxifene G1” value ([1]; inhibitor 50 μM) of the same molecule?
A: The value was 42 (2) %.

Q: What about the “% of control metabolism, raloxifene G2” value ([1]; inhibitor 50 μM) of the same molecule?
A: Its value is 60 (2) %.

Q: What about the “% of control metabolism, raloxifene G1” value ([1]; inhibitor 100 μM) of the same molecule?
A: The value was 31 (2) %.

Q: What about the “% of control metabolism, raloxifene G2” value ([1]; inhibitor 100 μM) of the same molecule?
A: Its value is 56 (3) %.

Q: And the “Inhibition of raloxifene glucuronidation, G1, UGT1A1” value (“Inhibition … G1, UGT1A1” for short) (UGT1A1; inhibitor 25 μM)?
A: Its value is 53 (0).

Q: And the “Inhibition … G1, UGT1A1” value (UGT1A1; inhibitor 50 μM)?
A: Its value is 33 (1).

Q: And the “Inhibition … G1, UGT1A1” value (UGT1A1; [7])?
A: The value was 81 (0).

Q: What about the “Inhibition of raloxifene glucuronidation, G2, UGT1A1” value (from here on “Inhibition … G2, UGT1A1”) (UGT1A1; inhibitor 25 μM) of the same molecule?
A: The value was 72 (1).

Q: What about the “Inhibition … G2, UGT1A1” value (UGT1A1; inhibitor 50 μM) of the same molecule?
A: The value was 58 (3).

Q: What about the “Inhibition … G2, UGT1A1” value (UGT1A1; [7]) of the same molecule?
A: The value was 91 (1).

Q: What about the “% of control metabolism, raloxifene G1” value (UGT1A1; inhibitor 25 μM) of the same molecule?
A: The value was 53 (0) %.

Q: What about the “% of control metabolism, raloxifene G2” value (UGT1A1; inhibitor 25 μM) of the same molecule?
A: The value was 72 (1) %.

Q: What about the “% of control metabolism, raloxifene G1” value (UGT1A1; inhibitor 50 μM) of the same molecule?
A: Its value is 33 (1) %.

Q: What about the “% of control metabolism, raloxifene G2” value (UGT1A1; inhibitor 50 μM) of the same molecule?
A: The value was 58 (3) %.

Q: What about the “residual metabolism (% of control), 2ME2 MG1” value ([2]; inhibitor 25 μM) of the same molecule?
A: Its value is 74 (1) %.

Q: What about the “residual metabolism (% of control), 2ME2 MG2” value ([2]; inhibitor 25 μM) of the same molecule?
A: The value was 62 (1) %.

Q: What about the “residual metabolism (% of control), 2ME2 MG1” value ([2]; inhibitor 50 μM) of the same molecule?
A: Its value is 64 (2) %.

Q: What about the “residual metabolism (% of control), 2ME2 MG2” value ([2]; inhibitor 50 μM) of the same molecule?
A: The value was 41 (3) %.

Q: What about the “residual metabolism (% of control), 2ME2 MG1” value ([2]; inhibitor 100 μM) of the same molecule?
A: The value was 48 (0) %.

Q: And the “residual metabolism (% of control), 2ME2 MG2” value ([2]; inhibitor 100 μM)?
A: Its value is 4 (0) %.

Q: And the “percentage of control metabolism, 7-HFC glucuronidation” value [3]?
A: The value was 72 (1) %.

Q: And the “% of control metabolism (SD, n = 3), 7-HFC glucuronidation” value ([3]; 7-HFC 50 μM, human liver microsomes 100 μg/ml, 15 min)?
A: Its value is 72 (1) %.

Q: What about the “residual metabolism (% of control), 2ME2 MG1” value ([4]; inhibitor 50 μM) of the same molecule?
A: The value was 109 (5) %.

Q: And the “residual metabolism (% of control), 2ME2 MG1” value ([4]; inhibitor 100 μM)?
A: Its value is 99 (2) %.

Q: And the “residual metabolism (percentage of control), zidovudine” value ([5]; inhibitor 100 μM)?
A: The value was 30 (1) %.

Q: What about the “residual metabolism (percentage of control), zidovudine glucuronidation” value ([6]; inhibitor 50 μM) of the same molecule?
A: Its value is 54 (2) %.

Q: What about the “residual metabolism (percentage of control), zidovudine glucuronidation” value ([6]; inhibitor 100 μM) of the same molecule?
A: The value was 40 (2) %.

Q: What about the “residual metabolism (percentage of control), zidovudine glucuronidation” value ([6]; inhibitor 200 μM) of the same molecule?
A: The value was 24 (1) %.

Q: And the “residual metabolism (percentage of control), zidovudine glucuronidation” value ([6]; inhibitor 500 μM)?
A: Its value is 13 (1) % and 10 (1) %.

Q: For `CC1CCC(C(C)C)C(O)C1` (stereo not shown) [Menthol], which “residual metabolism (% of control), 2ME2 MG1” value ([2]; inhibitor 50 μM) is on record?
A: Its value is 96 (2) %.

Q: And the “residual metabolism (% of control), 2ME2 MG2” value ([2]; inhibitor 50 μM)?
A: The value was 86 (1) %.

Q: And the “residual metabolism (% of control), 2ME2 MG1” value ([2]; inhibitor 100 μM)?
A: Its value is 92 (2) %.

Q: What about the “residual metabolism (% of control), 2ME2 MG2” value ([2]; inhibitor 100 μM) of the same molecule?
A: Its value is 74 (3) %.

Q: And the “residual metabolism (% of control), 2ME2 MG1” value ([4]; inhibitor 50 μM)?
A: The value was 98 (4) %.

Q: What about the “residual metabolism (% of control), 2ME2 MG1” value ([4]; inhibitor 100 μM) of the same molecule?
A: Its value is 125 (7) %.

Q: What about the “residual metabolism (percentage of control), zidovudine” value ([5]; inhibitor 500 μM) of the same molecule?
A: The value was 32 (3) %.

Q: What about the “residual metabolism (percentage of control), zidovudine glucuronidation” value ([6]; inhibitor 200 μM) of the same molecule?
A: Its value is 63 (6) %.

Q: What about the “residual metabolism (percentage of control), zidovudine glucuronidation” value ([6]; inhibitor 500 μM) of the same molecule?
A: The value was 43 (1) % and 37 (4) %.

Q: And the “residual metabolism (percentage of control), zidovudine glucuronidation” value ([6]; inhibitor 1000 μM)?
A: The value was 25 (2) %.
